Here are results for 24 compounds from patent US20230250096A1, “SUBSTITUTED PHENYL-1H-PYRROLO[2,3-c] PYRIDINE DERIVATIVES” (Janssen Pharmaceutica NV, priority 2021, published 2023).

A value given as a limit tells only on which side of the number the result lay.

One experiment has as its system MOLM14 cells. Nature of the experiment: Proliferation assay (spheroid confluence, 8 days), MOLM14. The format is cell-based, human. The settings on record: Homo sapiens, MOLM-14, MOLM14; read-out: spheroid assay_MOLM14 IC50. As for the experimental part:
The anti-proliferative effect of menin/MLL protein/protein interaction inhibitor test compounds was assessed in human leukemia cell lines. The cell line MOLM14 harbors a MLL translocation and expresses the MLL fusion protein MLL-AF9, respectively, as well as the wildtype protein from the second allele. OCI-AML3 cells that carry the NPM1c gene mutation were also tested. […] KO-52 was used as a control cell line containing two MLL (KMT2A) wildtype alleles in order to exclude compounds that display general cytotoxic effects.
MOLM14 cells were cultured in RPMI-1640 (Sigma Aldrich) supplemented with 10% heat-inactivated fetal bovine serum (HyClone), 2 mM L-glutamine (Sigma Aldrich) and 50 μg/ml gentamycin (Gibco). KO-52 and OCI-AML3 cell lines were propagated in alpha-MEM (Sigma Aldrich) supplemented with 20% heat-inactivated fetal bovine serum (HyClone), 2 mM L-glutamine (Sigma Aldrich) and 50 μg/ml gentamycin (Gibco).
In order to assess the anti-proliferative effects, 200 MOLM14 cells, 200 OCI-AML3 cells or 300 KO-52 cells were seeded in 200 μl media per well in 96-well round bottom, ultra-low attachment plates (Costar, catalogue number 7007). Cell seeding numbers were chosen based on growth curves to ensure linear growth throughout the experiment. Test compounds were added at different concentrations and the DMSO content was normalized to 0.3%. Cells were incubated for 8 days at 37° C. and 5% CO2. Spheroid like growth was measured in real-time by live-cell imaging (IncuCyteZOOM, Essenbio, 4×objective) acquiring images at day 8. Confluence (%) as a measure of spheroid size was determined using an integrated analysis tool.
In order to determine the effect of the test compounds over time, the confluence in each well as a measure of spheroid size, was calculated. Confluence of the highest dose of a reference compound was used as baseline for the LC (Low control) and the confluence of DMSO treated cells was used as 0% cytotoxicity (High Control, HC).
Absolute IC50 values were calculated as percent change in confluence as follows:
LC=Low Control: cells treated with e.g. 1 μM of the cytotoxic agent staurosporin, or e.g. cells treated with a high concentration of an alternative reference compound
HC=High Control: Mean confluence (%) (DMSO treated cells)
% Effect=100−(100*(Sample−LC)/(HC−LC))
GraphPad Prism (version 7.00) was used to calculate the IC50. Dose-response equation was used for the plot of % Effect vs Log10 compound concentration with a variable slope and fixing the maximum to 100% and the minimum to 0%.

The subject of the next experiment is MEIS1 mRNA expression. Nature of the experiment: MEIS1 mRNA expression assay (Quantigene Singleplex) in MOLM14 cells. Type of experiment: cell-based, human. The settings on record: Homo sapiens, MOLM-14, 48 h, 48 hours incubation. Summed up:
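MOLM14 cells, 3,750/well, exposed to increasing compound concentrations for 48 h. MEIS1 mRNA measured by QuantiGene Singleplex branched-DNA hybridization (lysis 45 min, hybridization 18–22 h, both 55 °C), normalized to RPL28. IC50 fitted to background-corrected fold change versus DMSO.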

The target of experiment [1] is T1, menin/MLL (terbium chelate-labeled menin, FITC-MBM1 peptide) (Homo sapiens, UniProt O00255, T541A).
T1 construct: Menin (a.a 1-610-6xhis tag, 2.3 mg/mL in 20 mM Hepes)
T1 sequence (O00255 with tags, fused parts or gaps T541A): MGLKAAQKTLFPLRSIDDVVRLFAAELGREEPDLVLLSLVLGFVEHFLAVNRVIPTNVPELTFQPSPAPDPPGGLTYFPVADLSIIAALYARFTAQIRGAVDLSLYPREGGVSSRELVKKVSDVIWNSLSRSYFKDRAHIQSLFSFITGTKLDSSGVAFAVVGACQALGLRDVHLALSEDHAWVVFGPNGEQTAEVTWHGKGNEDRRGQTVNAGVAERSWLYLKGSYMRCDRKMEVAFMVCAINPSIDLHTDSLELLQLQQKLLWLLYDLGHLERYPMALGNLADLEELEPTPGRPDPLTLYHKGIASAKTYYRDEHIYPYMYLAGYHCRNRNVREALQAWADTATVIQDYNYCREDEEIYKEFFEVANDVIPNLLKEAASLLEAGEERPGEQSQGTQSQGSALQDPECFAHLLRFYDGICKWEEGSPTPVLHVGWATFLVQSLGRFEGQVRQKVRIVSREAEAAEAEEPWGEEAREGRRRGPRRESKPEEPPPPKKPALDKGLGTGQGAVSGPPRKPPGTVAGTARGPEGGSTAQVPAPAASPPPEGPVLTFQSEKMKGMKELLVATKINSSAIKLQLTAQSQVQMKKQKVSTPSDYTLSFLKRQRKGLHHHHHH
Nature of the experiment: Menin/MLL homogenous time-resolved fluorescence (HTRF) assay. The settings on record: 30 min incubation. The format is binding. In short, it runs like this:
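Terbium-labeled menin (a.a. 1-610, His-tagged; […]) pre-incubated 30 min with compound, then 75 nM FITC-MBM1 peptide added for 15 min at ambient temperature in Tris pH 7.5 buffer, 0.5% DMSO. HTRF 520/490 nm ratio read; IC50 from 11-point four-fold titrations, typically from 10 μM.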

On to `CN=[S@](=O)(c1cc(F)ccc1-n1cc(C[C@H]2CCN(CC3CCN(C(C)=O)CC3)C2)c2c(C)cncc21)C(C)C` (single isomer, unassigned) [Compound 128b], for which the 50% inhibitory concentration (IC50) is 40 nM with MOLM14 cells, 65 nM with MEIS1 mRNA expression and 0.045 nM in experiment [1].

For `CN=[S@@](=O)(c1cc(F)ccc1-n1cc(C[C@H]2CCN(CC3CCN(C(C)=O)CC3)C2)c2c(C)cncc21)C(C)C` (single isomer, unassigned) [Compound 128d], the IC50 with MOLM14 cells was determined as 89 nM; in the experiment with MEIS1 mRNA expression it was 419 nM; in experiment [1], 0.104 nM.

With `Cc1cncc2c1c(C[C@@H]1CCN(C[C@H]3CCCCO3)C1)cn2-c1ccc(F)cc1C(=O)N(C)C(C)C` (single isomer, unassigned) [Compound 147a], the IC50 was 10 nM with MOLM14 cells, 52 nM with MEIS1 mRNA expression and 0.082 nM in experiment [1].

Turning to `CC(=O)N1CCC([C@@H](C)N2CC(Cc3cn(-c4ccc(F)cc4C(=O)N(C)C(C)C)c4cncc(C)c34)C2)CC1` (single isomer, unassigned) [Compound 150], the IC50 is 1470 nM in the experiment on MOLM14 cells, greater than 1000 nM in the experiment on MEIS1 mRNA expression and 0.43 nM in experiment [1].

For the compound `CNC(=O)[C@H]1CC[C@H]([C@@H](C)N2CC(Cc3cn(-c4ccc(F)cc4C(=O)N(C)C(C)C)c4cncc(C)c34)C2)CC1` (single isomer, unassigned) [Compound 162], the IC50 in the experiment with MOLM14 cells was 424 nM; in the experiment on MEIS1 mRNA expression, greater than 1000 nM; in experiment [1] it was 0.505 nM.

Consider `CNC(=O)[C@H]1CC[C@H]([C@H](C)N2CC(Cc3cn(-c4ccc(F)cc4C(=O)N(C)C(C)C)c4cncc(C)c34)C2)CC1` (single isomer, unassigned) [Compound 163], for which the IC50 is 456 nM with MOLM14 cells, roughly 623 nM in the experiment on MEIS1 mRNA expression and 0.192 nM in experiment [1].

In the case of `CNC(=O)[C@H]1CC[C@H](CN2CC([C@@H](C)c3cn(-c4ccc(F)cc4C(=O)N(C)C(C)C)c4cncc(C)c34)C2)CC1` (single isomer, unassigned) [Compound 164a], the IC50 in the experiment on MOLM14 cells is 154 nM; with MEIS1 mRNA expression, 249 nM; in experiment [1] it was 0.209 nM.

In the case of `CN=[S@](=O)(c1cc(F)ccc1-n1cc(CC2CN(CC3CCOCC3)C2)c2c(C)cncc21)C(C)C` (single isomer, unassigned) [Compound 166a], the figures for the IC50 (with MOLM14 cells; with MEIS1 mRNA expression; in experiment [1]) were 49 nM, 38 nM and 0.084 nM, respectively.

With `CN=[S@@](=O)(c1cc(F)ccc1-n1cc(CC2CN(CC3CCOCC3)C2)c2c(C)cncc21)C(C)C` (single isomer, unassigned) [Compound 166b], the IC50 with MOLM14 cells amounted to 120 nM; with MEIS1 mRNA expression, 256 nM; in experiment [1], 0.226 nM.

As to `Cc1cncc2c1c(CC1CN(CC3CCOCC3)C1)cn2-c1ccc(F)cc1[S@](=N)(=O)C(C)C` (single isomer, unassigned) [Compound 167a], the results for the IC50 (with MOLM14 cells; with MEIS1 mRNA expression; in experiment [1]) were 210 nM, greater than 1000 nM and 0.19 nM, respectively.

With `Cc1cncc2c1c(CC1CN(CC3CCOCC3)C1)cn2-c1ccc(F)cc1[S@@](=N)(=O)C(C)C` (single isomer, unassigned) [Compound 167b], the IC50 came to 99 nM in the experiment on MOLM14 cells, 117 nM in the experiment with MEIS1 mRNA expression and 0.118 nM in experiment [1].

On to `Cc1cncc2c1c(C[C@@H]1CCN(C[C@H]3CCNC(=O)CC3)C1)cn2-c1ccc(F)cc1C(=O)N(C)C(C)C` (single isomer, unassigned) [Compound 169a], for which the 50% inhibitory concentration (IC50) in the experiment with MOLM14 cells stood at 17 nM; in the experiment with MEIS1 mRNA expression it was 15 nM; in experiment [1] it was 0.061 nM.

Consider `Cc1cncc2c1c(C[C@@H]1CCN(C[C@@H]3CCNC(=O)CC3)C1)cn2-c1ccc(F)cc1C(=O)N(C)C(C)C` (single isomer, unassigned) [Compound 169b], for which the figures for the IC50 (with MOLM14 cells; in the experiment with MEIS1 mRNA expression; in experiment [1]) were 87 nM, roughly 220 nM and 0.195 nM, respectively.

`CC(=O)N1CC([C@@H](C)N2CC[C@@H](Cc3cn(-c4ccc(F)cc4C(=O)N(C)C(C)C)c4cncc(C)c34)C2)C1` (single isomer, unassigned) [Compound 175]: the IC50 in the experiment on MOLM14 cells is 234 nM; in the experiment on MEIS1 mRNA expression, roughly 1050 nM; in experiment [1], 1.33 nM.

Regarding `CC(=O)N1CC([C@H](C)N2CC[C@@H](Cc3cn(-c4ccc(F)cc4C(=O)N(C)C(C)C)c4cncc(C)c34)C2)C1` (single isomer, unassigned) [Compound 176], the IC50 in the experiment on MOLM14 cells came out at 46 nM; in the experiment with MEIS1 mRNA expression, 306 nM; in experiment [1] it was 0.2 nM.

As to `Cc1cncc2c1c(C[C@@H]1CCN(CC3CCOCC3)C1)cn2-c1ccc(F)cc1C(=O)N1CCC[C@@]1(C)CO` (single isomer, unassigned) [Compound 362b], the IC50 in the experiment with MOLM14 cells amounted to 12 nM; in the experiment on MEIS1 mRNA expression it was 19 nM; in experiment [1], 0.067 nM.

As for `CC(=O)N1CCC(CN2CC[C@@H](Cc3cn(-c4ccc(F)cc4C(=O)N4CCC(O)C4C)c4cncc(C)c34)C2)CC1` (stereo in doubt) [Compound 325], the results for the concentration for half-maximal inhibition (IC50) (with MOLM14 cells; in the experiment with MEIS1 mRNA expression; in experiment [1]) were 1050 nM, 1340 nM and 0.337 nM, respectively.

Take `Cc1cncc2c1c(CC1CN(CC3CCC(=O)NC3)C1)cn2-c1ccc(F)cc1C(=O)N(C)C(C)C` (stereo not drawn) [Compound 120]: the half-inhibitory concentration (IC50) is 539 nM with MOLM14 cells, 149 nM in the experiment on MEIS1 mRNA expression and 0.054 nM in experiment [1].

Consider `CNC(=O)[C@H]1CC[C@H](CN2CC(C)(Cc3cn(-c4ccc(F)cc4C(=O)N(C)C(C)C)c4cncc(C)c34)C2)CC1` [Compound 140], for which the values for the IC50 (with MOLM14 cells; in the experiment with MEIS1 mRNA expression; in experiment [1]) were 15 nM, 49 nM and roughly 0.17 nM, respectively.

Take `Cc1cncc2c1c(C[C@@H]1CCN(C[C@@H]3CCCCN3)C1)cn2-c1ccc(F)cc1C(=O)N(C)C(C)C` [Compound 148]: the figures for the IC50 (in the experiment on MOLM14 cells; with MEIS1 mRNA expression; in experiment [1]) were 88 nM, 238 nM and 0.086 nM, respectively.

For `COC(=O)[C@H]1CC[C@H](CN2CC[C@@H](Cc3cn(-c4ccc(F)cc4C(=O)N(C)C(C)C)c4cncc(C)c34)C2)CC1` [Compound 154], the IC50 with MOLM14 cells came to 91 nM; in the experiment with MEIS1 mRNA expression, 244 nM; in experiment [1], 0.14 nM.

For `Cc1cncc2c1c(CC1CN(C[C@H]3CC[C@H](C(=O)NCCC#N)CC3)C1)cn2-c1ccc(F)cc1C(=O)N(C)C(C)C` [Compound 155], the IC50 in the experiment with MOLM14 cells turned out to be 49 nM; with MEIS1 mRNA expression, 54 nM; in experiment [1] it was 0.051 nM.

Consider `Cc1cncc2c1c(C[C@H]1CCN(CC3CCN(C(=O)NC4CC4)CC3)C1)cn2-c1ccc(F)cc1C(=O)N(C)C(C)C` [Compound 157], for which the IC50 was 2 nM in the experiment on MOLM14 cells, 6 nM in the experiment on MEIS1 mRNA expression and 0.02 nM in experiment [1].

Consider `COCCNC(=O)[C@H]1CC[C@H](CN2CC(Cc3cn(-c4ccc(F)cc4C(=O)N(C)C(C)C)c4cncc(C)c34)C2)CC1` [Compound 158], for which the IC50 with MOLM14 cells turned out to be 6 nM; in the experiment on MEIS1 mRNA expression it was 24 nM; in experiment [1] it was 0.045 nM.
